Assay results: PubChem BioAssay AID256 (DTP/NCI, 2004)
Where “and” joins values, the source holds several entries; their conditions need not be identical. Identical values can stand only once. Inconclusive results and toxic doses are left out.

System: CD2F1 mice, L1210 leukemia ip, survival T/C
Experiment: NCI In Vivo Anticancer Drug Screen. Data for tumor model L1210 Leukemia (intraperitoneal) in CD2F1 (CDF1) mice
Conditions: higher = longer survival
Outline: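 Mice carrying a transplanted tumor received test compound or vehicle alone. The value is the measurement in the treated group divided by that in the vehicle-treated control group.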

[1] = endpoint: mean survival time, dose: 200.0 mg/kg/injection, schedule: Q01DX001 (ip), vehicle: saline
[2] = endpoint: mean survival time, dose: 400.0 mg/kg/injection, schedule: Q01DX001 (ip), vehicle: saline
[3] = endpoint: mean survival time, dose: 100.0 mg/kg/injection, schedule: Q01DX001 (ip), vehicle: Klucel (hydroxypropylcellulose) (HPC)
[4] = endpoint: mean survival time, dose: 100.0 mg/kg/injection, schedule: Q01DX009 (ip), vehicle: saline with Tween-80
[5] = endpoint: mean survival time, dose: 200.0 mg/kg/injection, schedule: Q01DX009 (ip), vehicle: saline with Tween-80
[6] = endpoint: mean survival time, dose: 400.0 mg/kg/injection, schedule: Q01DX009 (ip), vehicle: saline with Tween-80

O=P1(NCCCl)OCCCN1CCCl (configuration not stated)
T/C (endpoint: mean survival time, dose: 25.0 mg/kg/injection, schedule: Q01DX001 (ip), vehicle: DMSO): 111 % of control
T/C (endpoint: mean survival time, dose: 25.0 mg/kg/injection, schedule: Q01DX001 (ip), vehicle: saline): 102 % of control
T/C (endpoint: mean survival time, dose: 50.0 mg/kg/injection, schedule: Q01DX001 (ip), vehicle: saline): 122 % of control
T/C (endpoint: mean survival time, dose: 100.0 mg/kg/injection, schedule: Q01DX001 (ip), vehicle: DMSO): 153 % of control
T/C (endpoint: mean survival time, dose: 200.0 mg/kg/injection, schedule: Q01DX001 (ip), vehicle: DMSO): 397 % of control
T/C [1]: 170 % of control
T/C (endpoint: mean survival time, dose: 400.0 mg/kg/injection, schedule: Q01DX001 (ip), vehicle: DMSO): 430 % of control
T/C (endpoint: mean survival time, dose: 400.0 mg/kg/injection, schedule: Q01DX001 (ip), vehicle: clinical formulation): 416 % of control
T/C [2]: 326 % of control and 685 % of control
T/C (endpoint: mean survival time, dose: 600.0 mg/kg/injection, schedule: Q01DX001 (ip), vehicle: clinical formulation): 437 % of control
T/C (endpoint: mean survival time, dose: 600.0 mg/kg/injection, schedule: Q01DX001 (ip), vehicle: saline): 451 % of control
T/C (endpoint: median survival time, dose: 108.0 mg/kg/injection, schedule: Q01DX001 (ip), vehicle: water): 155 % of control and 157 % of control
T/C (endpoint: median survival time, dose: 180.0 mg/kg/injection, schedule: Q01DX001 (ip), vehicle: water): 166 % of control and 173 % of control
T/C (endpoint: median survival time, dose: 300.0 mg/kg/injection, schedule: Q01DX001 (ip), vehicle: saline): 315 % of control
T/C (endpoint: median survival time, dose: 300.0 mg/kg/injection, schedule: Q01DX001 (ip), vehicle: water): 200 % of control and 215 % of control
T/C (endpoint: median survival time, dose: 300.0 mg/kg/injection, schedule: Q01DX001 (iv), vehicle: saline): 223 % of control
T/C (endpoint: median survival time, dose: 450.0 mg/kg/injection, schedule: Q01DX001 (ip), vehicle: saline): 616 % of control
T/C (endpoint: median survival time, dose: 450.0 mg/kg/injection, schedule: Q01DX001 (iv), vehicle: saline): 616 % of control
T/C (endpoint: median survival time, dose: 500.0 mg/kg/injection, schedule: Q01DX001 (ip), vehicle: water): 65 % of control

Cc1c(Cl)c(C)c(Cl)c(O)c1Cl (tested in a mixture with another compound)
T/C (endpoint: mean survival time, dose: 50.0 mg/kg/injection, schedule: Q01DX005 (ip), vehicle: saline with Tween-80): 97 % of control
T/C (endpoint: mean survival time, dose: 100.0 mg/kg/injection, schedule: Q01DX005 (ip), vehicle: saline with Tween-80): 91 % of control

CCCSc1ncnc2nc[nH]c12
T/C (endpoint: median survival time, dose: 31.25 mg/kg/injection, schedule: Q01DX009 (ip), vehicle: saline): 100 % of control
T/C (endpoint: median survival time, dose: 62.5 mg/kg/injection, schedule: Q01DX009 (ip), vehicle: saline): 114 % of control and 111 % of control
T/C (endpoint: median survival time, dose: 125.0 mg/kg/injection, schedule: Q01DX009 (ip), vehicle: saline): 121 % of control and 111 % of control
T/C (endpoint: median survival time, dose: 250.0 mg/kg/injection, schedule: Q01DX009 (ip), vehicle: saline): 122 % of control

O=C1C(Cl)=C(Nc2nc3ccccc3s2)C(=O)c2ccccc21
T/C (endpoint: mean survival time, dose: 25.0 mg/kg/injection, schedule: Q01DX001 (ip), vehicle: Klucel (hydroxypropylcellulose) (HPC)): 102 % of control
T/C (endpoint: mean survival time, dose: 50.0 mg/kg/injection, schedule: Q01DX001 (ip), vehicle: Klucel (hydroxypropylcellulose) (HPC)): 96 % of control
T/C [3]: 98 % of control

Clc1ccc(NC(Nc2ccc(Cl)cc2Cl)C(Cl)(Cl)Cl)c(Cl)c1
T/C [4]: 101 % of control
T/C [5]: 106 % of control
T/C [6]: 95 % of control

O=Cc1ccc[nH]1
T/C (endpoint: mean survival time, dose: 100.0 mg/kg/injection, schedule: Q01DX001 (ip), vehicle: saline): 94 % of control
T/C (endpoint: mean survival time, dose: 100.0 mg/kg/injection, schedule: Q04DX003 (ip), vehicle: saline): 104 % of control
T/C [1]: 100 % of control
T/C (endpoint: mean survival time, dose: 200.0 mg/kg/injection, schedule: Q04DX003 (ip), vehicle: saline): 101 % of control
T/C [2]: 100 % of control
T/C (endpoint: mean survival time, dose: 400.0 mg/kg/injection, schedule: Q04DX003 (ip), vehicle: saline): 108 % of control

COC(=O)c1cc(-c2ccccc2)n(-c2ccccc2)c1-c1ccccc1
T/C [3]: 94 % of control
T/C (endpoint: mean survival time, dose: 100.0 mg/kg/injection, schedule: Q04DX002 (ip), vehicle: saline with Tween-80): 90 % of control
T/C (endpoint: mean survival time, dose: 200.0 mg/kg/injection, schedule: Q01DX001 (ip), vehicle: Klucel (hydroxypropylcellulose) (HPC)): 89 % of control
T/C (endpoint: mean survival time, dose: 200.0 mg/kg/injection, schedule: Q04DX002 (ip), vehicle: saline with Tween-80): 87 % of control
T/C (endpoint: mean survival time, dose: 400.0 mg/kg/injection, schedule: Q01DX001 (ip), vehicle: Klucel (hydroxypropylcellulose) (HPC)): 89 % of control
T/C (endpoint: mean survival time, dose: 400.0 mg/kg/injection, schedule: Q04DX002 (ip), vehicle: saline with Tween-80): 94 % of control

CCCCNC(=O)Nc1ccc(C(=O)OCCCC)cc1
T/C [4]: 87 % of control
T/C (endpoint: mean survival time, dose: 100.0 mg/kg/injection, schedule: Q04DX003 (ip), vehicle: saline with Tween-80): 101 % of control
T/C [5]: 92 % of control
T/C (endpoint: mean survival time, dose: 200.0 mg/kg/injection, schedule: Q04DX003 (ip), vehicle: saline with Tween-80): 101 % of control
T/C [6]: 92 % of control
T/C (endpoint: mean survival time, dose: 400.0 mg/kg/injection, schedule: Q04DX003 (ip), vehicle: saline with Tween-80): 100 % of control

CCOC(=O)c1cc(=O)cc(C(=O)OCC)o1
T/C (endpoint: mean survival time, dose: 100.0 mg/kg/injection, schedule: Q01DX001 (ip), vehicle: saline with Tween-80): 100 % of control
T/C (endpoint: mean survival time, dose: 200.0 mg/kg/injection, schedule: Q01DX001 (ip), vehicle: saline with Tween-80): 100 % of control
T/C (endpoint: mean survival time, dose: 400.0 mg/kg/injection, schedule: Q01DX001 (ip), vehicle: saline with Tween-80): 100 % of control
